According to patent US20240417359A1, “PRECURSORS OF PHENOLIC FRAGRANT COMPOUNDS” (GIVAUDAN SA, priority 2021, published 2024):

assay: Odour description on paper blotter; details: 1% solution in EtOH on paper blotter, 24 h

Compound | Odour description
1-(dec-1-en-4-yloxy)-2-ethoxy-4-methylbenzene and 2-(dec-1-en-4-yloxy)-1-ethoxy-4-methylbenzene [Example 46] | medicinal, phenolic, vanilla
CCCCCC[C@@H](C/C=C\CCCCCCCC(=O)OC)Oc1cc(C)c(C(=O)OC)c(O)c1C [Example 3, methyl (S,Z)-2-hydroxy-4-((18-methoxy-18-oxooctadec-9-en-7-yl)oxy)-3,6-dimethylbenzoate] | powdery mossy, evernyl, green, fatty
CCCCCCC(CC=C(C)C)Oc1ccc(C=O)cc1OCC (stereo not shown) [Example 4, 3-ethoxy-4-((2-methylundec-2-en-5-yl)oxy)benzaldehyde] | vanilla (powdery, creamy) dry (dough)
C=CCC(Oc1ccc(CCC(C)=O)cc1)C(C)=CCC (stereo not shown) [Example 5, 4-(4-((5-methylocta-1,5-dien-4-yl)oxy)phenyl)butan-2-one] | fruity (powdery, sweet, raspberry)
C=CCC(Oc1ccc(C=CC)cc1OC)C(C)=CCC (stereo not shown) [Example 6, 2-methoxy-1-((5-methylocta-1,5-dien-4-yl)oxy)-4-(prop-1-en-1-yl)benzene] | woody (smokey, cedarwood, pyrogravure)
C=CCC(Oc1cc(C)c(C(=O)OC)c(O)c1C)C(C)=CCC (stereo not shown) [Example 7, methyl 2-hydroxy-3,6-dimethyl-4-((5-methylocta-1,5-dien-4-yl)oxy)benzoate] | powdery (evernyl)
C=CCC(Oc1ccc(CCC(C)=O)cc1)c1ccccc1 (stereo not shown) [Example 8, 4-(4-((1-phenylbut-3-en-1-yl)oxy)phenyl)butan-2-one] | fruity (powdery, sweet, raspberry)
CCCCCCC=CC=CCC(CCCCCC)Oc1ccc(CCC(C)=O)cc1 (stereo not shown) [Example 9, 4-(4-((octadeca-9,11-dien-7-yl)oxy)phenyl)butan-2-one] | powdery fruity raspberry
CCCCCCC(CC=CCC(CCCCCC)Oc1ccc(CCC(C)=O)cc1)Oc1ccc(CCC(C)=O)cc1 (stereo not shown) [Example 10, 4,4′-((octadec-9-ene-7,12-diylbis(oxy))bis(4,1-phenylene))bis(butan-2-one)] | powdery fruity raspberry
C=CCC(Oc1ccc(C=O)cc1OCC)C(C)=CCC (stereo not shown) [Example 11, 3-ethoxy-4-((5-methylocta-1,5-dien-4-yl)oxy)benzaldehyde] | powdery (vanilla)
C=CCC(C/C=C\CC)Oc1ccc(C=CC)cc1OC (stereo not shown) [Example 13, 2-methoxy-1-(((Z)-nona-1,6-dien-4-yl)oxy)-4-(prop-1-en-1-yl)benzene] | creamy, vanilla
C=C(C)[C@@H]1CC[C@@H](C)C[C@@H]1Oc1ccc(CCC(C)=O)cc1 [Example 14, 4-(4-(((1S,2S,5R)-5-methyl-2-(prop-1-en-2-yl)cyclohexyl)oxy)phenyl)butan-2-one] | sweet fruity (raspberry)
CCCCCC(CC=Cc1ccccc1)Oc1ccc(C=O)cc1OCC (stereo not shown) [Example 15, 3-ethoxy-4-((1-phenylnon-1-en-4-yl)oxy)benzaldehyde] | powdery (vanilla)
CCOc1cc(C=O)ccc1OC(C)(C)CC=C=C(C)C [Example 16, 4-((2,6-dimethylhepta-4,5-dien-2-yl)oxy)-3-ethoxybenzaldehyde] | powdery (vanilla)
CCOc1cc(C=O)ccc1OC(C)(C)CC=C=C(C)CCC=C(C)C [Example 18, 3-ethoxy-4-((2,6,10-trimethylundeca-4,5,9-trien-2-yl)oxy)benzaldehyde] | vanilla powdery
CC/C=C/CC(CCC)Oc1ccc(C=O)cc1OCC (stereo not shown) [Example 19, (E)-3-ethoxy-4-(non-6-en-4-yloxy)benzaldehyde] | vanilla powdery creamy
CCOc1cc(C=O)ccc1OCC/C=C(\C)CC/C=C(\C)CCC=C(C)C [Example 20, 3-ethoxy-4-(((3E,7E)-4,8,12-trimethyltrideca-3,7,11-trien-1-yl)oxy)benzaldehyde] | vanilla (powdery, creamy, chocolate, gourmand)
CC=CCC(C)(Cc1ccccc1)Oc1ccc(C=O)cc1OCC (stereo not shown) [Example 21, 3-ethoxy-4-((2-methyl-1-phenylhex-4-en-2-yl)oxy)benzaldehyde] | powdery (vanilla) creamy (milky)
C=CCC(CCCCCC)Oc1ccc(C=O)cc1OCC (stereo not shown) [Example 22, 4-(dec-1-en-4-yloxy)-3-ethoxybenzaldehyde] | dry powdery (cedarwood, vanilla)
C=CCC(CCCCCC)Oc1ccc(CCC(C)=O)cc1 (stereo not shown) [Example 23, 4-(4-(dec-1-en-4-yloxy)phenyl)butan-2-one] | fruity (raspberry, gourmand) sugary
C=CCC(CCCCCC)Oc1cc(C)c(C(=O)OC)c(O)c1C (stereo not shown) [Example 24, methyl 4-(dec-1-en-4-yloxy)-2-hydroxy-3,6-dimethylbenzoate] | powdery (mossy, evernyl)
C=CCC(CCCCCCCCCC)Oc1ccccc1C(=O)OC (stereo not shown) [Example 25, methyl 2-(tetradec-1-en-4-yloxy)benzoate] | aldehydic, metallic, green, citrus
C=CCC(CCCCCCCCCC)Oc1ccccc1C(=O)CC (stereo not shown) [Example 26, 1-(2-(tetradec-1-en-4-yloxy)phenyl)propan-1-one] | aldehydic, metallic, green, citrus

Compound | Odour description
C=CCC(CCCCCCCCCC)Oc1ccc(C=O)cc1OCC (stereo not shown) [Example 27, 3-ethoxy-4-(tetradec-1-en-4-yloxy)benzaldehyde] | powdery, vanilla, aldehydic, metallic, green, citrus, mandarin
CC/C=C\C/C=C\CCOc1ccc(CCC(C)=O)cc1 [Example 31, 4-(4-(((3Z,6Z)-nona-3,6-dien-1-yl)oxy)phenyl)butan-2-one] | green, leaf aldehyde, green apple, fruity
CC/C=C\C/C=C\CCOc1ccccc1OC [Example 32, 1-methoxy-2-(((3Z,6Z)-nona-3,6-dien-1-yl)oxy)benzene] | green, leaf aldehyde
CC/C=C\C/C=C\CCOc1ccc2ccccc2c1 [Example 33, 2-(((3Z,6Z)-nona-3,6-dien-1-yl)oxy)naphthalene] | weak, green, leaf aldehyde
CC/C=C\C/C=C\CCOc1ccc(C=O)cc1OC [Example 34, 3-methoxy-4-(((3Z,6Z)-nona-3,6-dien-1-yl)oxy)benzaldehyde] | green, leaf aldehyde, powdery, vanilla
C=CCC(CCCCCCCCC)Oc1ccc(C=O)cc1OC (stereo not shown) [Example 35, 3-methoxy-4-(tridec-1-en-4-yloxy)benzaldehyde] | powdery, vanilla, aldehydic, green, metallic, mandarin
C=CCC(CCCCCCCCC)Oc1ccc(COC)cc1OCC (stereo not shown) [Example 37, 2-ethoxy-4-(methoxymethyl)-1-(tridec-1-en-4-yloxy)benzene] | citrus, mandarin, green
CCC=CCC(CCCCCCCCC)Oc1ccc(CCC(C)=O)cc1 (stereo not shown) [Example 39, 4-(4-(pentadec-3-en-6-yloxy)phenyl)butan-2-one] | raspberry, mandarin, citrus, aldehydic, fresh
CCC=CCC(Oc1ccc(C=O)cc1OCC)C(=O)OCC (stereo not shown) [Example 40, ethyl 2-(2-ethoxy-4-formylphenoxy)hept-4-enoate] | powdery (vanilla)
CC/C=C\CC(C/C=C\CC)Oc1ccc(C=O)cc1OCC [Example 41, 3-ethoxy-4-(((3Z,8Z)-undeca-3,8-dien-6-yl)oxy)benzaldehyde] | vanilla, powdery
CC=CCC(CCCCCC)Oc1ccc(C=O)cc1OCC (stereo not shown) [Example 43, 3-ethoxy-4-(undec-2-en-5-yloxy)benzaldehyde] | powdery, creamy, vanilla
CCC=CCC(CCCCCC)Oc1ccc(C=O)cc1OCC (stereo not shown) [Example 44, 4-(dodec-3-en-6-yloxy)-3-ethoxybenzaldehyde] | woody, cedarwood, vanilla
CCCCCCC(C/C=C\CCCCCCCC(=O)OC)Oc1ccccc1OC (stereo not shown) [Example 45, methyl (Z)-12-(2-methoxyphenoxy)octadec-9-enoate] | phenolic, medicinal, guaiacol, vanilla absolute, peru balsam
CCOc1cc(C=O)ccc1OCC/C=C(\C)c1ccccc1 [Example 48, (E)-3-ethoxy-4-((4-phenylpent-3-en-1-yl)oxy)benzaldehyde] | sweet, powdery, vanilla, ice cream
CCOc1cc(C=O)ccc1OCCC=C(C)c1ccc(OC)cc1 [Example 49, 3-ethoxy-4-((4-(4-methoxyphenyl)pent-3-en-1-yl)oxy)benzaldehyde] | sweet, powdery, vanilla, ice cream, soft anisic, heliotropine, anethiol
CCOc1cc(C=O)ccc1OCCC=C(C)Cc1ccccc1 [Example 50, 3-ethoxy-4-((4-methyl-5-phenylpent-3-en-1-yl)oxy)benzaldehyde] | powdery, vanilla, ice cream
CCOc1cc(C=O)ccc1OCC/C=C(\C)c1ccc2ccccc2c1 [Example 51, (E)-3-ethoxy-4-((4-(naphthalen-2-yl)pent-3-en-1-yl)oxy)benzaldehyde] | powdery, vanilla, ice cream, floral, neroli, orange flower, baby cologne, madeleine, fougassette
COc1ccc(C(C)=CCCOc2ccc(CCC(C)=O)cc2)cc1 [Example 53, 4-(4-((4-(4-methoxyphenyl)pent-3-en-1-yl)oxy)phenyl)butan-2-one] | sweet powdery, anisic aldehyde, fruity, raspberry ketone
CCOc1cc(C=O)ccc1OCCC=C(C)CCc1ccc(OC)cc1 [Example 54, 3-ethoxy-4-((6-(4-methoxyphenyl)-4-methylhex-3-en-1-yl)oxy)benzaldehyde] | powdery, vanilla
COC(=O)c1ccccc1OCCC=C(C)CCc1ccccc1 [Example 56, methyl 2-((4-methyl-6-phenylhex-3-en-1-yl)oxy)benzoate] | wintergreen, salicylate, slightly powdery, vanilla
CCC(=O)c1ccccc1OCCC=C(C)CCc1ccccc1 [Example 57, 1-(2-((4-methyl-6-phenylhex-3-en-1-yl)oxy)phenyl)propan-1-one] | wintergreen, salicylate, slightly powdery, vanilla
CCOc1cc(C=O)ccc1OCCC=C(C)CCCc1ccccc1 [Example 58, 3-ethoxy-4-((4-methyl-7-phenylhept-3-en-1-yl)oxy)benzaldehyde] | powdery, vanilla, creamy, chocolate
CC(=O)CCc1ccc(OCCC=C(C)CCCc2ccccc2)cc1 [Example 59, 4-(4-((4-methyl-7-phenylhept-3-en-1-yl)oxy)phenyl)butan-2-one] | powdery fruity, raspberry
